Assay results: US12643912B2, “Macrocyclic compounds, a process for their preparation and pharmaceutical compositions containing them” (LES LABORATOIRES SERVIER, priority 2020, dated 2026)

test system: Nrf2 (Keap1-NRF2 nuclear translocation); assay: U2OS translocation assay (PathHunter U2OS Keap1-NRF2 Nuclear Translocation Cell Line); type: cell-based; conditions: Homo sapiens, U2OS, 3 h, read-out: CELLULAR U2OS EC50 (nM), U2OS Keap1-NRF2 nuclear translocation cells, 3 h incubation, luminescence, normalized between 1% DMSO and 10 μM andrographolide
Experimental: EXAMPLE 84: U2OS—TRANSLOCATION ASSAY
U2OS cell have been stably transduced using MMLV-derived retroviral vector, to overexpress Nrf2-Enzyme Donor fusion protein, and Acceptor Enzyme in the nucleus (PathHunter® U2OS Keap1-NRF2 Nuclear Translocation Cell Line, Ref.93-0821C3, DiscoverX).
PathHunter U2OS cells were grown in Minimum Essential Medium (MEM) (Ref.30-2003, ATCC), 10% FBS (Ref.P30-193306, PanBiotech), 500 μg/ml Geneticine, 250 μg/ml hygromycine, 0.25 μg/ml puromycine (10131-027, 10687-010 and Ref.A1113802 respectively, Life Technologies).
The night before experiment, cells were harvested using Tryple Xpress (Ref.126905, Bibco) for 5 min at 37° C., resuspended in Opti-MEM™ (Ref.31985-047, Gibco), 1% FBS (Ref.P30-193306, PanBiotech) and then plated into 384 wells plates (Ref.6007680, Perkin Elmer) at the density of 7 500 cells/well in 20 μl. Cell are stored over night at 37° C., 5% CO2 until used. Compounds in 100% DMSO (0.315 μl/well) were resuspended in 20 μl MEM, 1% FBS, 3.4% DMSO. Compounds and andrographolide (10 μM final concentration; Ref.365645-500MG, Aldrich)) as positive control, were dispensed on cell, 5 μl /well, and then incubated for 3 h at 37° C. and 5% CO2. After incubation, Path hunter reagents were dispensed on cells (12 μl /well, Ref.93-0001, DiscoverX) and incubated for 60 min at room temperature in the dark.
Then, luminescence signal was measured using multimodal reader (Pherastar, BMG Labtech). Data were normalized between 1% DMSO (basal signal) and 10 μM andrographolide (positive signal) and analyzed using Activity Base software.

Row | Compound | EC50 [nM]
1 | Cc1ccc2cc1CN1Cc3cc(ccc3OS1(=O)=O)OCCCCn1nnc3c(C)c(ccc31)[C@@H]2CC(=O)Nc1cncnc1 [Example 79a, 2-[(8R)-4,31-Dimethyl-27,27-dioxo-21,26-dioxa-27λ^6-thia-1,14,15,16-tetraazahexacyclo[20.5.3.1^3,70.1^9,130.0^12,160.0^25,29]dotriaconta-3(32),4,6,9(31),10,12,14,22,24,29-decaen-8-yl]-N-(pyrimidin-5-yl)acetamide] | 1120
2 | Cc1ccc2cc1CN1Cc3cc(ccc3OS1(=O)=O)OCCn1nnc3c(C)c(ccc31)C2CC(=O)O (stereo not drawn) [Example 77a, [4,29-Dimethyl-25,25-dioxo-19,24-dioxa-25λ^6-thia-1,14,15,16-tetraazahexacyclo[18.5.3.1^3,70.1^9,130.0^12,160.0^23,27]triaconta-3(30),4,6,9(29),10,12,14,20,22,27-decaen-8-yl]acetic acid] | 1750
3 | Cc1ccc2cc1[C@@H](C)N1Cc3cc(cc(C)c3OS1(=O)=O)OCCCCn1nnc3c(C)c(ccc31)[C@H]2CC(=O)O [Example 29b, [(2R,8S)-2,4,24,31-tetramethyl-27,27-dioxo-21,26-dioxa-27λ^6-thia-1,14,15,16-tetraazahexacyclo[20.5.3.1^3,70.1^9,130.0^12,160.0^25,29]dotriaconta-3(32),4,6,9(31),10,12,14,22,24,29-decaen-8-yl]acetic acid] | 68.4
4 | Cc1ccc2cc1CN1Cc3cc(ccc3OS1(=O)=O)OCCCCn1nnc3c(C)c(ccc31)[C@@H]2CC(=O)Nc1cccnc1 [Example 80b, 2-[(8R)-4,31-dimethyl-27,27-dioxo-21,26-dioxa-27λ^6-thia-1,14,15,16-tetraazahexacyclo[20.5.3.1^3,70.1^9,130.0^12,160.0^25,29]dotriaconta-3(32),4,6,9(31),10,12,14,22,24,29-decaen-8-yl]-N-(pyridin-3-yl)acetamide] | 2700
5 | COc1ccc2cc1[C@@H](C)N1Cc3cc(ccc3OS1(=O)=O)OCCCCCn1nnc3c(C)c(ccc31)[C@@H]2CC(=O)O [Example 31d, [(2R,8R)-4-methoxy-2,32-dimethyl-28,28-dioxo-22,27-dioxa-28λ^6-thia-1,14,15,16-tetraazahexacyclo[21.5.3.1^3,70.1^9,130.0^12,160.0^26,30]tritriaconta-3(33),4,6,9(32),10,12,14,23,25,30-decaen-8-yl]acetic acid] | 326
6 | Cc1ccc2cc1[C@@H](C)N1Cc3cc(cc(C)c3OS1(=O)=O)OCCCCn1nnc3c(C)c(ccc31)[C@@H]2CC(=O)O [Example 29a, [(2R,8R)-2,4,24,31-Tetramethyl-27,27-dioxo-21,26-dioxa-27λ^6-thia-1,14,15,16-tetraazahexacyclo[20.5.3.1^3,70.1^9,130.0^12,160.0^25,29]dotriaconta-3(32),4,6,9(31),10,12,14,22,24,29-decaen-8-yl]acetic acid] | 440
7 | Cc1ccc2cc1[C@@H](C)N1Cc3cc(ccc3OS1(=O)=O)OC[C@@H](O)CCn1nnc3c(C)c(ccc31)[C@@H]2CC(=O)O [Example 46b, [(2R,8RS,19S)-19-hydroxy-2,4,31-trimethyl-27,27-dioxo-21,26-dioxa-27λ^6-thia-1,14,15,16-tetraazahexacyclo[20.5.3.1^3,70.1^9,130.0^12,160.0^25,29]dotriaconta-3(32),4,6,9(31),10,12,14,22,24,29-decaen-8-yl]acetic acid] | 792
8 | Cc1ccc2cc1[C@@H](C)N1Cc3cc(ccc3OS1(=O)=O)OC[C@@H](O)CCn1nnc3c(C)c(ccc31)[C@H]2CC(=O)O [Example 46a, [(2R,8RS,19S)-19-Hydroxy-2,4,31-trimethyl-27,27-dioxo-21,26-dioxa-27λ^6-thia-1,14,15,16-tetraazahexacyclo[20.5.3.1^3,70.1^9,130.0^12,160.0^25,29]dotriaconta-3(32),4,6,9(31),10,12,14,22,24,29-decaen-8-yl]acetic acid] | 228
9 | Cc1ccc2cc1CN1Cc3cc(ccc3OS1(=O)=O)OCCCCn1nnc3c(C)c(cc(-c4ccccc4)c31)[C@@H]2CC(=O)O (single isomer, unassigned) [Example 49] | 1620
10 | COc1ccc2cc1[C@H](C)N1Cc3cc(ccc3OS1(=O)=O)OCCCCn1nnc3c(C)c(ccc31)[C@@H]2CC(=O)O [Example 28c, [(2S,8R)-4-Methoxy-2,31-dimethyl-27,27-dioxo-21,26-dioxa-27λ^6-thia-1,14,15,16-tetraazahexacyclo[20.5.3.1^3,70.1^9,130.0^12,160.0^25,29]dotriaconta-3(32),4,6,9(31),10,12,14,22,24,29-decaen-8-yl]acetic acid] | > 3160
11 | Cc1c2ccc3c1nnn3CCCCOc1ccc3c(c1)CN([C@H](C)c1cc(ccc1Cl)[C@H]2CC(=O)O)S(=O)(=O)O3 [Example 64b, [(2R,8R)-4-chloro-2,31-dimethyl-27,27-dioxo-21,26-dioxa-27λ^6-thia-1,14,15,16-tetraazahexacyclo[20.5.3.1^3,70.1^9,130.0^12,160.0^25,29]dotriaconta-3(32),4,6,9(31),10,12,14,22,24,29-decaen-8-yl]acetic acid] | 231

same assay, conditions: read-out: CELLULAR U2OS EC50; U2OS Keap1-NRF2 nuclear translocation cells, 3 h incubation, luminescence, normalized between 1% DMSO and 10 μM andrographolide

Row | Compound | EC50 [nM]
12 | COc1cc2cc(c1C)CN1Cc3cc(ccc3OS1(=O)=O)OCCCCn1nnc3c(C)c(ccc31)C2CC(=O)O (single isomer, unassigned) [Example 30b, [5-Methoxy-4,31-dimethyl-27,27-dioxo-21,26-dioxa-27λ^6-thia-1,14,15,16-tetraazahexacyclo[20.5.3.1^3,70.1^9,130.0^12,160.0^25,29]dotriaconta-3(32),4,6,9(31),10,12,14,22,24,29-decaen-8-yl]acetic acid] | 2360
13 | COc1cc2cc(c1C)CN1Cc3cc(ccc3OS1(=O)=O)OCCCCn1nnc3c(C)c(ccc31)C2CC(=O)O (single isomer, unassigned) [Example 30a, [5-Methoxy-4,31-dimethyl-27,27-dioxo-21,26-dioxa-27λ^6-thia-1,14,15,16-tetraazahexacyclo[20.5.3.1^3,70.1^9,130.0^12,160.0^25,29]dotriaconta-3(32),4,6,9(31),10,12,14,22,24,29-decaen-8-yl]acetic acid] | 555
14 | Cc1ccc2cc1CN1Cc3cc(ccc3OS1(=O)=O)OCCOCCn1nnc3c(C)c(ccc31)C2CC(=O)O (single isomer, unassigned) [Example 78a, [4,32-Dimethyl-28,28-dioxo-19,22,27-trioxa-28λ^6-thia-1,14,15,16-tetraazahexacyclo[21.5.3.1^3,70.1^9,130.0^12,160.0^26,30]tritriaconta-3(33),4,6,9(32),10,12,14,23,25,30-decaen-8-yl]acetic acid] | 69
15 | Cc1ccc2cc1CN1Cc3cc(ccc3OS1(=O)=O)OCCCCn1nnc3c(C)c(ccc31)C2C(C)(C)C(=O)Nc1cncnc1 (single isomer, unassigned) [Example 81a, 2-[4,31-Dimethyl-27,27-dioxido-21,26-dioxa-27-thia-1,14,15,16-tetraazahexacyclo[20.5.3.1^3,70.1^9,130.0^12,160.0^25,29]dotriaconta-3(32),4,6,9(31),10,12,14,22,24,29-decaen-8-yl]-2-methyl-N-(pyrimidin-5-yl)propanamide] | 275
16 | Cc1ccc2cc1CN1Cc3c(ccc(c3Cl)OCCOCCn3nnc4c(C)c(ccc43)C2CC(=O)O)OS1(=O)=O (single isomer, unassigned) [Example 76b, [31-Chloro-4,32-dimethyl-28,28-dioxo-19,22,27-trioxa-28λ^6-thia-1,14,15,16-tetraazahexacyclo[21.5.3.1^3,70.1^9,130.0^12,160.0^26,30]tritriaconta-3(33),4,6,9(32),10,12,14,23,25,30-decaen-8-yl]acetic acid] | 26.2
17 | Cc1ccc2cc1CN1Cc3cc(ccc3OS1(=O)=O)Oc1ccccc1NCCn1nnc3c(C)c(ccc31)C2CC(=O)O (single isomer, unassigned) [Example 70a, [4,36-Dimethyl-32,32-dioxo-26,31-dioxa-32λ^6-thia-1,14,15,16,19-pentaazaheptacyclo[25.5.3.1^3,70.1^9,130.0^12,160.0^20,250.0^30,34]heptatriaconta-3(37),4,6,9(36),10,12,14,20,22,24,27,29,34-tridecaen-8-yl]acetic acid] | 306
18 | Cc1ccc2cc1CN1Cc3c(ccc(c3Cl)OCCOCCn3nnc4c(C)c(ccc43)C2CC(=O)O)OS1(=O)=O (single isomer, unassigned) [Example 76a, [31-Chloro-4,32-dimethyl-28,28-dioxo-19,22,27-trioxa-28λ^6-thia-1,14,15,16-tetraazahexacyclo[21.5.3.1^3,70.1^9,130.0^12,160.0^26,30]tritriaconta-3(33),4,6,9(32),10,12,14,23,25,30-decaen-8-yl]acetic acid] | 7.5
